Data published in patent publication US20020136744A1, “Sustained release drug dispersion delivery device” (Merck & Co., Inc., priority 1999, published 2002).
≈ marks a conversion by molar mass, not a printed value.

Columns and labels:
[1] = pH-dependent solubility of the beneficial agent; type: physicochemical
Experimental: The formulation of the instant invention was prepared using 1-(3-chlorophenyl)-4-[1-(4-cyanobenzyl)-5-imidazolyl methyl]-2-piperazinone is used as the beneficial agent. The solubility of the beneficial agent decreases from about 1 g/mL at pH 1 to about 70 μg/mL at pH 7, with the solubility cliff occurring at about pH 3.5.

[2] = in vitro release of the drug from the tablets, USP Apparatus II; type: physicochemical; conditions: for release rate / release mechanism: without a pH modulator
Experimental: The in vitro release of the drug from the tablets prepared as above was determined using USP Apparatus II, paddle speed 75 rpm, at 37° C. in 900 ml of dissolution media with pH values 1.2, 1.7 and 6.8. The pH 1.2 and 1.7 media consisted of 0.1N HCl solution adjusted to the appropriate pH by the addition of sodium hydroxide. The pH 6.8 medium consisted of 0.7% sodium dodecyl sulfate in 10 mM phosphate buffer.

Compound: N#Cc1ccc(Cn2cncc2CN2CCN(c3cccc(Cl)c3)C(=O)C2)cc1 [1-(3-chlorophenyl)-4-[1-(4-cyanobenzyl)-5-imidazolylmethyl]-2-piperazinone]
- solubility cliff (pH at which it occurs) [1]: ~3.5 pH
- solubility (in words) ([1]; low pH levels (less than about 2)): very soluble
- solubility (in words) ([1]; near neutral pH levels (greater than about 5)): practically insoluble
- solubility ([1]; pH 1, simulated gastric fluid): ~1000 mg/mL (≈ 2460 mM)
- solubility ([1]; pH 7, aqueous buffer): ~0.07 mg/mL (≈ 0.172 mM)
- release rate ([2]; with a pH modulator, over a range of pH levels (FIG. 2)): relatively similar over a range of pH levels
- release rate / release mechanism ([2]; media pH about 2.2 to about 6.8 (FIG. 1)): controlled by the gel extrusion mechanism
- release rate / release mechanism ([2]; pH about 1.2 (FIG. 1)): dominated by dissolution and diffusion
- release rate / release mechanism ([2]; pH about 1.7 (FIG. 1)): both the dissolution/diffusion and gel extrusion mechanisms are repressed
